Source: ChEMBL document CHEMBL4265946, “Activity of oxygen-versus sulfur-containing analogs of the Flex-Het anticancer agent SHetA2” (Eur J Med Chem, 2018)

Key:
[1] = system: A2780; test: Growth inhibition of human A2780 cells at 10 uM after 72 hrs by CellTiter-96 assay relative to control; format: functional; conditions: A2780, 72 h, read-out: GI
[2] = system: A2780; test: Growth inhibition of human A2780 cells after 72 hrs by CellTiter-96 assay; format: functional, cell-based; conditions: A2780, 72 h
[3] = Toxicity in dog; format: organism-based, Canis lupus familiaris; conditions: in vivo
[4] = Toxicity in rat; format: organism-based; conditions: in vivo

Row | Compound | IC50 [2] | inhibition of growth at 10 µM [1] | NOAEL [3] | NOAEL [4]
1 | CC1(C)CC(C)(C)c2cc(N/C(S)=N/c3ccc([N+](=O)[O-])cc3)ccc2O1 | 6.96 µM | 87% |  | 
2 | CC1(C)CCOc2ccc(NC(=S)Nc3ccc([N+](=O)[O-])cc3)cc21 | 6.4 µM | 19% |  | 
3 | CCC1(CC)CC(CC)(CC)c2cc(NC(=O)Nc3ccc(C(F)(F)F)cc3)ccc2O1 | 2 µM | 86.2% |  | 
4 | CC1(C)CCOc2ccc(NC(=O)Nc3ccc([N+](=O)[O-])cc3)cc21 | 6.7 µM | 74% |  | 
5 | CCC1(CC)CC(CC)(CC)c2cc(NC(=S)Nc3ccc([N+](=O)[O-])cc3)ccc2O1 | 4.6 µM | 94% |  | 
6 | CC1(C)CCOc2ccc(NC(=S)Nc3ccc(C(F)(F)F)cc3)cc21 | 5.5 µM | 28% |  | 
7 | CCC1(CC)CC(C)(C)Oc2ccc(NC(=O)Nc3ccc([N+](=O)[O-])cc3)cc21 | 2.05 µM | 93.7% |  | 
8 | CCC1(CC)CC(CC)(CC)c2cc(NC(=O)Nc3ccc([N+](=O)[O-])cc3)ccc2O1 | 2.09 µM | 91.4% |  | 
9 | CCC1(CC)CC(C)(C)c2cc(NC(=O)Nc3ccc([N+](=O)[O-])cc3)ccc2O1 | 2.17 µM | 93.2% |  | 
10 | CCC1(CC)CC(C)(C)c2cc(NC(=S)Nc3ccc([N+](=O)[O-])cc3)ccc2O1 | 2.9 µM | 93.9% |  | 
11 | CCC1(CC)CC(C)(C)Oc2ccc(NC(=S)Nc3ccc([N+](=O)[O-])cc3)cc21 | 3.69 µM | 95.7% |  | 
12 | CCOC(=O)c1ccc(N/C(S)=N/c2ccc3c(c2)C(C)(C)CC(C)(C)O3)cc1 | 4.3 µM | 26% |  | 
13 | CC1(C)CC(C)(C)c2cc(NC(=S)Nc3ccc([N+](=O)[O-])cc3)ccc2S1 [SHETA-2] | 3.17 µM | 84.3% | > 1500 mg/kg/day | 500 mg/kg/day

Second part, led by results:

Row | IC50 [2] | Compound | inhibition of growth at 10 µM [1] | NOAEL [3] | NOAEL [4]
14 | 6.9 µM | CC1(C)CC(C)(C)c2cc(NC(=S)Nc3ccc(S(N)(=O)=O)cc3)ccc2O1 | 32% |  | 
15 | 3.5 µM | CC1(C)CCOc2ccc(NC(=O)Nc3ccc(OC(F)(F)F)cc3)cc21 | 36% |  | 
16 | 2.45 µM | CCC1(CC)CC(C)(C)c2cc(NC(=O)Nc3ccc(C(F)(F)F)cc3)ccc2O1 | 92.4% |  | 
17 | 3.6 µM | CC1(C)CC(C)(C)c2cc(NC(=O)Nc3ccc(C(F)(F)F)cc3)ccc2O1 | 88.4% |  | 
18 | 43.7 µM | CC1(C)CC(C)(C)c2cc(NC(=S)Nc3ccc(C(F)(F)F)cc3)ccc2O1 | 2% |  | 
19 | 3 µM | CCC1(CC)CC(CC)(CC)c2cc(NC(=O)Nc3ccc(OC(F)(F)F)cc3)ccc2O1 | 67% |  | 
20 | 4.7 µM | CCC1(CC)CC(C)(C)Oc2ccc(NC(=S)Nc3ccc(C(F)(F)F)cc3)cc21 | 11.8% |  | 
21 | 4.56 µM | CC1(C)CC(C)(C)c2cc(NC(=O)Nc3ccc(OC(F)(F)F)cc3)ccc2O1 | 91.5% |  | 
22 | 4.1 µM | CC1(C)CC(C)(C)c2cc(NC(=O)Nc3ccc([N+](=O)[O-])cc3)ccc2O1 | 79% |  | 
23 | 5 µM | CC1(C)CCOc2ccc(NC(=O)Nc3ccc(C(F)(F)F)cc3)cc21 | 47% |  | 
24 | 4.3 µM | CC1(C)CCOc2ccc(NC(=S)Nc3ccc(OC(F)(F)F)cc3)cc21 | 16% |  | 
25 | 4.7 µM | CC1(C)CC(C)(C)c2cc(NC(=O)Nc3ccc(C#N)cc3)ccc2O1 | 93% |  | 
26 | 2.43 µM | CCC1(CC)CC(C)(C)Oc2ccc(NC(=O)Nc3ccc(C(F)(F)F)cc3)cc21 | 93.3% |  | 
